# Data: patent US20260102359A1, “COMBINATION TREATMENT OF DERMAL AND TRANSDERMAL FIBROTIC DISEASES, DISORDERS AND ASSOCIATED PAIN AND INFLAMMATION” (ERESINA, LLC, priority 2022, published 2026)
# Structures can show the parent of a compound that is named as a salt. *1 amine or outer side, *2 acyl side, *3 side chain or, on linkers, in order; H or OH if unused. Where a SMILES comes first, the peptide text is derived from it. Bridges are numbered along the chain shown (N, C = ends). [ ]: non-standard residue; d: D form. The star is where a group is joined. pTerphenylCO(4''-OnC5H11) = CCCCCOc1ccc(-c2ccc(-c3ccc(C(=O)*)cc3)cc2)cc1; Orn(4R-OH,5R-OH) = O=C([C@H](C[C@@H](O)[C@@H](O)N[*:3])N[*:1])[*:2]; hTyr(3S-OH,4S-OH) = N[C@H](C(=O)O)[C@H](O)[C@@H](O)c1ccc(O)cc1; Pro(3S-OH,4S-Me) = C[C@H]1CN[C@H](C(=O)O)[C@H]1O; Hyp = O=C(O)[C@@H]1C[C@@H](O)CN1
# Test system: hDMFa myofibroblast cells
# Test: not given
# Conditions: not given
row,Molecule,Compound Myofibroblast Cytotoxicity Activity
1,"COc1cc2/c(=N/c3ccc(Br)cc3F)nc[nH]c2cc1OCC1CCN(C)CC1 [Cmpd 994, Vandetanib (ZD6474)]",++++
2,"COc1cc(C(=O)O)ccc1O [Cmpd 995, Vanillic acid]",++
3,"CCCc1nc(C)c2c(=O)[nH]c(-c3cc(S(=O)(=O)N4CCN(CC)CC4)ccc3OCC)nn12 [Cmpd 996, Vardenafil]",++++
4,"COc1ccc(C(CN(C)C)C2(O)CCCCC2)cc1 (stereo not shown) [Cmpd 998, Venlafaxine]",++
5,"C=Cc1c(C)c2cc3nc(cc4[nH]c(cc5nc(cc1[nH]2)C(C)=C5CCC(=O)O)c(CCC(=O)OC)c4C)[C@@]1(C)C3=CC=C(C(=O)OC)[C@H]1C(=O)OC [Cmpd 999, Verteporfin]",+++++
6,"OCc1cc([C@@H](O)CNCCCCCCOCCOCc2c(Cl)cccc2Cl)ccc1O [Cmpd 1001, Vilanterol trifenatate]",+++
7,"CC[C@]1(O)C[C@@H]2CN(CCc3c([nH]c4ccccc34)[C@@](C(=O)OC)(c3cc4c(cc3OC)N(C)[C@H]3[C@@](O)(C(=O)OC)[C@H](OC(C)=O)[C@]5(CC)C=CCN6CC[C@]43[C@@H]65)C2)C1 [Cmpd 1002, Vinblastine sulfate]",++
8,"CC[C@]1(O)C[C@H]2CN(CCc3c([nH]c4ccccc34)[C@@](C(=O)OC)(c3cc4c(cc3OC)N(C=O)[C@H]3[C@@](O)(C(=O)OC)[C@H](OC(C)=O)[C@]5(CC)C=CCN6CC[C@]43[C@@H]65)C2)C1 [Cmpd 1004, Vincristine sulfate]",+++
9,"CCC1=C[C@@H]2CN(C1)Cc1c([nH]c3ccccc13)[C@@](C(=O)OC)(c1cc3c(cc1OC)N(C)[C@H]1[C@@](O)(C(=O)OC)[C@H](OC(C)=O)[C@]4(CC)C=CCN5CC[C@]31[C@@H]54)C2 [Cmpd 1005, Vinorelbine]",++
10,"CCOC(=O)C1=C[C@]2(CC)CCCN3CCc4c(n1c1ccccc41)[C@@H]32 [Cmpd 1006, Vinpocetine]",+++
11,"C=C1CC[C@H](O)C/C1=C/C=C1\CCC[C@]2(C)[C@@H]([C@H](C)/C=C/[C@H](C)C(C)C)CC[C@@H]12 [Cmpd 1008, Vitamin D2 (Ergocalciferol)]",+++
12,"C=C1CC[C@H](O)C/C1=C/C=C1\CCC[C@]2(C)[C@@H]([C@H](C)CCCC(C)C)CC[C@@H]12 [Cmpd 1009, Vitamin D3]",+++
13,"CC1=C(C/C=C(\C)CCC[C@H](C)CCC[C@H](C)CCCC(C)C)C(=O)c2ccccc2C1=O [Cmpd 1010, Vitamin K1]",++
14,"CC(C)(C)C#Cc1cc(N(C(=O)[C@H]2CC[C@H](C)CC2)[C@H]2CC[C@H](O)CC2)c(C(=O)O)s1 [Cmpd 1014, VX-222 (VCH-222,Lomibuvir)]",++
15,"O=c1[nH]c(=O)c2[nH]cnc2[nH]1 [Cmpd 1020, xanthine]",++
16,"COc1cc(C(=O)NS(=O)(=O)c2ccccc2C)ccc1Cc1cn(C)c2ccc(NC(=O)OC3CCCC3)cc12 [Cmpd 1023, Zafirlukast]",+++++
17,"Nc1ccn([C@H]2CC[C@@H](CO)O2)c(=O)n1 [Cmpd 1024, Zalcitabine]",++++
18,"O=C1Cc2cc(CCN3CCN(c4nsc5ccccc45)CC3)c(Cl)cc2N1 [Cmpd 1029, Ziprasidone HCl]",++
19,Cilengitide [Cmpd 261],++++
20,Cyclo(RGDyK) [Cmpd 303],++
21,D-(−)-Isoascorbic Acid [Cmpd 306],+
22,Fumalic acid [Cmpd 474],++
23,Icatibant Acetate [Cmpd 514],++
24,"Lecithin, Soybean [Cmpd 577]",+
25,Teicoplanin [Cmpd 921],+++
26,Zinc Pyrithione [Cmpd 1026],+++++
27,beta-Alanine [Cmpd 174],++++

# Test system: hDMFa myofibroblast cells
# Test: Myofibroblast cytotoxicity, MTS cell viability assay
# Conditions: 8-12 hours in serum-free inhibitor media, […]
row,Molecule,Compound Myofibroblast Cytotoxicity Activity
1,"NCCC(=O)N[C@@H](Cc1cnc[nH]1)C(=O)O [Cmpd 568, L-Carnosine]",8
2,"C#C[C@]1(O)CC[C@H]2[C@@H]3CCC4=CCCC[C@@H]4[C@H]3CC[C@@]21C [Cmpd 623, Lynestrenol]",+++++
3,"CN(C)CCC=C1c2ccccc2C(C)(C)c2ccccc21 [Cmpd 647, Melitracen hydrochloride]",+++++
4,"CC(=O)Oc1cc(C)c(OC(C)=O)c2ccccc12 [Cmpd 650, Menadiol Diacetate]",+++++
5,"CCCCCCCCN=c1ccn(CCCCCCCCCCn2ccc(=NCCCCCCCC)cc2)cc1 [Cmpd 730, Octenidine (dihydrochloride)]",+++++
6,"CC1(C)CC[C@]2(C(=O)O)CC[C@]3(C)C(=CC[C@@H]4[C@@]5(C)CC[C@H](O)C(C)(C)[C@@H]5CC[C@]43C)[C@@H]2C1 [Cmpd 732, Oleanolic acid]",+++++
7,"CCCCCCCCCCCCCCCCCCOP(=O)([O-])OC1CC[N+](C)(C)CC1 [Cmpd 771, Perifosine]",+++++
8,"O=C1[C@H]2CCCC[C@H]2C(=O)N1CCCCN1CCN(c2nsc3ccccc23)CC1 [Cmpd 772, Perospirone hydrochloride]",+++++
9,"Nc1ccc2cc3ccc(N)cc3nc2c1.Nc1ccc2cc3ccc(N)cc3nc2c1.O=S(=O)(O)O [Cmpd 798, Proflavine Hemisulfate]",+++++

# Same assay, conditions: 8-12 hours in serum-free inhibitor media, […], HCl
row,Molecule,Compound Myofibroblast Cytotoxicity Activity
1,"Cl.NCCCC[C@H](N)C(=O)O [Cmpd 597, L-Lysine HCl]",+

# Same assay, conditions: MTS viability, 8-12 hours incubation in serum-free inhibitor media, normalized to negative control
row,Molecule,Compound Myofibroblast Cytotoxicity Activity
1,"CCCCCCCCCCCC[N+](C)(C)CCOc1ccccc1 [Cmpd 377, Domiphen Bromide]",+++++
2,"CO[C@H]1C[C@H](O[C@H]2[C@H](C)O[C@@H](O[C@@H]3/C(C)=C/C[C@@H]4C[C@@H](C[C@]5(C=C[C@H](C)[C@@H](C6CCCCC6)O5)O4)OC(=O)[C@@H]4C=C(C)[C@@H](O)[C@H]5OC/C(=C\C=C\[C@@H]3C)[C@]54O)C[C@@H]2OC)O[C@@H](C)[C@@H]1O [Cmpd 379, Doramectin]",+++++
3,"CC(C)(C)c1cc(C(C)(C)C)c(NC(=O)c2c[nH]c3ccccc3c2=O)cc1O [Cmpd 545, Ivacaftor (VX-770)]",+++++

# Same assay, conditions: serum-free media with inhibitor 8-12 hours, MTS cell viability, inhibition normalized as percentage of negative control
row,Molecule,Compound Myofibroblast Cytotoxicity Activity
1,"OCCCCCCCCO [Cmpd 38, 1,8-Octanediol]",+
2,Cc1cc(O)cc(C(C)C)c1 [Cmpd 53],+
3,"CCCCCOc1ccc(-c2ccc(-c3ccc(C(=O)N[C@H]4C[C@@H](O)[C@@H](O)NC(=O)[C@@H]5[C@@H](O)[C@@H](C)CN5C(=O)[C@H]([C@@H](C)O)NC(=O)[C@H]([C@H](O)[C@@H](O)c5ccc(O)cc5)NC(=O)[C@@H]5C[C@@H](O)CN5C(=O)[C@H]([C@@H](C)O)NC4=O)cc3)cc2)cc1 [Cmpd 124, Anidulafungin] ({pTerphenylCO(4''-OnC5H11)}-[Orn(4R-OH,5R-OH)]T[Hyp][hTyr(3S-OH,4S-OH)]T[Pro(3S-OH,4S-Me)]; lactam 1-C)",+++++
4,"C[C@H]1[C@H](C)CC[C@]2(C(=O)O)CC[C@]3(C)C(=CC[C@@H]4[C@@]5(C)C[C@@H](O)[C@H](O)[C@@](C)(CO)[C@@H]5CC[C@]43C)[C@H]12 [Cmpd 135, Asiatic acid]",+++++
5,"CC1=C(C(=O)OC(C)C)C(c2cccc([N+](=O)[O-])c2)C(C(=O)OC2CN(C(c3ccccc3)c3ccccc3)C2)=C(N)N1 (stereo not shown) [Cmpd 148, Azelnidipine]",+++++
6,"COC(=O)OCOc1c2n(ccc1=O)N([C@@H]1c3ccccc3SCc3c1ccc(F)c3F)[C@@H]1COCCN1C2=O [Cmpd 155, Baloxavir marboxil]",+++++
7,"Cc1ccc([C@@H]2O[C@H](CO)[C@@H](O)[C@H](O)[C@H]2O)cc1Cc1ccc(-c2ccc(F)cc2)s1 [Cmpd 208, Canagliflozin]",+++++
8,"CCCCCCCCCCCCCCCC[N+](C)(C)C.[Br-] [Cmpd 242, Cetrimonium Bromide (CTAB)]",+++++
9,"COc1ccc2c(c[n+](C)c3c4cc5c(cc4ccc23)OCO5)c1OC.[Cl-] [Cmpd 244, Chelerythrine Chloride]",+++++

# Same assay, conditions: serum-free media with inhibitor 8-12 hours, MTS viability normalized to negative control
row,Molecule,Compound Myofibroblast Cytotoxicity Activity
1,"COc1ccc2c(O[C@@H]3C[C@H]4C(=O)N[C@]5(C(=O)NS(=O)(=O)C6CC6)C[C@H]5/C=C\CCCCN(C)C(=O)[C@@H]4C3)cc(-c3nc(C(C)C)cs3)nc2c1C [Cmpd 863, Simeprevir]",+++++
2,"CN[C@@H]1C[C@H]2O[C@@](C)([C@@H]1OC)n1c3ccccc3c3c4c(c5c6ccccc6n2c5c31)C(=O)NC4 [Cmpd 888, Staurosporine]",+++++
3,"Cc1ccc(Sc2ccccc2N2CCNCC2)c(C)c1 [Cmpd 1011, Vortioxetine]",+++++
4,"Br.Cc1ccc(Sc2ccccc2N2CCNCC2)c(C)c1 [Cmpd 1012, Vortioxetine (Lu AA21004) HBr]",+++++
5,Sericin Gel [Cmpd 859],+
6,Sodium Aescinate [Cmpd 869],+++++
